Values of other authors in US20250082651A1, “GANAXOLONE FOR USE IN TREATING GENETIC EPILEPTIC DISORDERS” (Marinus Pharmaceuticals, Inc., priority 2017, published 2025).

What was measured:
[1] = human plasma; cited from earlier work
[2] = test system: patients with CDKL5-related epilepsy; conditions: CDKL5 deficiency disorder patients; cited from earlier work

| Structure (SMILES) | Half-life [1] | Responder rate at 12 months [2] [%] |
| --- | --- | --- |
| CC(=O)[C@H]1CC[C@H]2[C@@H]3CC[C@H]4C[C@H](O)CC[C@]4(C)[C@H]3CC[C@]12C [Allopregnanolone, 3α,5α-tetrahydroprogesterone, reference compound] | about 45 minutes |  |
| CCCC(CCC)C(=O)O [valproic acid] |  | 9 |
